Key:
[1] = system: acute dextran sodium sulfate (DSS)-induced IBD; assay: Acute prophylactic model of DSS-induced IBD in mice; assay type: in vivo, male C57Bl/6 mice
From the text: Acute and chronic models of dextran sodium sulfate (DSS)-induced IBD in mice were used to explore efficacy of GSNORi against this disease. Acute and chronic DSS-induced IBD are widely used and well characterized models that induce pathological changes in the colon similar to those observed in the human disease. In these models and in human disease, epithelial cells within the crypts of the colon are disrupted, leading to dysfunction of the epithelial barrier and the ensuing tissue inflammation, edema, and ulceration. GSNORi therapy may benefit IBD by restoring s-nitrosoglutathione (GSNO) levels, and thus prevent or reverse the epithelial barrier dysfunction. Experimental IBD was induced by administration of DSS in the drinking water of male C57Bl/6 mice (N=8 to 10 mice per group) for 6 consecutive days. GSNORi was dosed orally at doses of 0.1 to 10 mg/kg/day for 10 days starting two days prior to and continuing two days post DSS exposure. Two days post DSS exposure, the effect of GSNORi was assessed in a blinded fashion via endoscopy and histopathology using a five point scale ranging from a score=0 (normal tissue) through a score=4 (ulcerative tissue damage and marked pathological changes). Levels of circulating cytokines involved in inflammatory pathways were also assessed. The effect of GSNORi was compared to vehicle treated controls. The corticosteroid, prednisolone, was used as the positive control in this study and was administered daily at 3 mg/kg/day via oral dosing. Naïve mice (N=5) were also assessed as a normal tissue control.

[2] = system: cigarette smoke-induced COPD (acute 4 day); assay: Acute (4 day) cigarette smoke exposure COPD model; assay type: in vivo, female C57Bl/6 mice
Protocol: The efficacy of GSNOR inhibitors was assessed in a mouse model of chronic obstructive pulmonary disease (COPD) induced by short duration (4 days or 11 days) of exposure to cigarette smoke. Infiltration of inflammatory cells into the bronchoalveolar lavage fluid (BALF) and BALF levels of chemokines involved in inflammation and tissue turnover/repair were measured to assess the influences of GSNOR inhibitors on some of the early events associated with the initiation and progression of COPD.
Efficacy of GSNOR inhibitors against COPD was explored using acute (4 day) and subchronic (11 day) models of cigarette smoke-induced COPD in mice. […] In animal models, changes in lung pathology are only evident after extended (several months) duration of exposure to cigarette smoke, thus making chronic models prohibitive as effective screening tools. More recently, models exploring inflammatory responses after short duration (2 weeks or less) of smoke exposure in mice have been utilized as tools for screening efficacy and mechanisms of action of novel therapeutics against COPD. The key roles of inflammation in the initiation and progression of COPD, make these short duration models relevant for initial tests of efficacy of novel therapeutics.
Acute (4 Day) Smoke Exposure Model: Female C57Bl/6 mice (N=8 per group) were exposed to cigarette smoke using a whole body exposure chamber. Mice were exposed daily for 4 consecutive days to 4 cycles of smoke from 6 sequential cigarettes (Kentucky 3R4F without filter) with a 30 minute smoke free interval between cycles. GSNOR inhibitors were administered daily via oral dosing at 10 mg/kg/day for 7 days starting 2 days prior to smoke exposure and continuing 1 day post-exposure. The effects of GSNOR inhibitors were assessed by quantitating the numbers of total cells, leukocytes, and leukocytes differentials in the BALF via light microscopy and the levels of BALF chemokines via ELISA at approximately 24 h after the last smoke exposure. The effect of GSNOR inhibitors were compared to vehicle treated controls. The PDE4 inhibitor, roflumilast, was used as the positive control for the study. A group of naïve mice (N=8) was exposed to air and used as a negative control for the study.

GSNOR = molecular target: T1, GSNOR (Homo sapiens, UniProt P11766); assay: GSNOR assay (inhibition of GSNOR activity, NADH absorbance at 340 nm); assay type: biochemical; conditions: printed as 'about <'; 0.240 mM GSNO, 0.300 mM NADH, pH 7.4, 25° C.
T1 construct: made in house; host or cells: E. coli (arabinose-induced)
T1 sequence (P11766 whole entry): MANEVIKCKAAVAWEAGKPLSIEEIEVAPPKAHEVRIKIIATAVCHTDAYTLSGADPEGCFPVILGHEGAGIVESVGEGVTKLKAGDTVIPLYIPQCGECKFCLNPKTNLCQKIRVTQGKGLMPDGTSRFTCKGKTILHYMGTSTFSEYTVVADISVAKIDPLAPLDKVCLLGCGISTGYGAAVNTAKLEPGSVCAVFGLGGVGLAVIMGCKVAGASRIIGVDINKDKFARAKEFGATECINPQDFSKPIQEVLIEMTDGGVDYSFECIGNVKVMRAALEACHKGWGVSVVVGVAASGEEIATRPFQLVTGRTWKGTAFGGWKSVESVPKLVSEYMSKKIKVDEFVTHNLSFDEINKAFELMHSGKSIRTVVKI
Protocol: GSNOR expression and purification is described in Biochemistry 2000, 39, 10720-10729.
GSNOR Fermentation: Pre-cultures were grown from stabs of a GSNOR glycerol stock in 2XYT media containing 100 ug/ml ampicillin after an overnight incubation at 37° C. Cells were then added to fresh 2XYT (4 L) containing ampicillin and grown to an OD (A600) of 0.6-0.9 at 37° C. before induction. GSNOR expression was induced with 0.1% arabinose in an overnight incubation at 20° C.
GSNOR Purification: E. coli cell paste was lysed by nitrogen cavitation and the clarified lysate purified by Ni affinity chromatography on an AKTA FPLC (Amersham Pharmacia). The column was eluted in 20 mM Tris pH 8.0/250 mM NaCl with a 0-500 mM imidazole gradient. Eluted GSNOR fractions containing the Smt-GSNOR fusion were digested overnight with Ulp-1 at 4° C. to remove the affinity tag then re-run on the Ni column under the same conditions. GSNOR was recovered in the flowthrough fraction and for crystallography is further purified by Q-Sepharose and Heparin flowthrough chromatography in 20 mM Tris pH 8.0, 1 mM DTT, 10 uM ZnSO4.
GSNOR Assay: GSNO and enzyme/NADH Solutions are made up fresh each day. The solutions are filtered and allowed to warm to room temperature. GSNO solution: 100 mM NaPO4 (pH 7.4), 0.480 mM GSNO. 396 μL of GSNO Solution is added to a cuvette followed by 8 μL of test compound in DMSO (or DMSO only for full reaction control) and mixed with the pipette tip. Compounds to be tested are made up at a stock concentration of 10 mM in 100% DMSO. 2 fold serial dilutions are done in 100% DMSO. 8 μL of each dilution are added to an assay so that the final concentration of DMSO in the assay is 1%. The concentrations of compounds tested range from 100 to 0.003 μM. Enzyme/NADH solution: 100 mM NaPO4 (pH 7.4), 0.600 mM NADH, 1.0 μg/mL GSNO Reductase. 396 μL of the Enzyme/NADH solution is added to the cuvette to start the reaction. The cuvette is placed in the Cary 3E UV/Visible Spectrophotometer and the change in 340 nm absorbance/min at 25° C. is recorded for 3 minutes. The assays are done in triplicate for each compound concentration. IC50's for each compound are calculated using the standard curve analysis in the Enzyme Kinetics Module of SigmaPlot.
Final assay conditions: 100 mM NaPO4, pH 7.4, 0.240 mM GSNO, 0.300 mM NADH, 0.5 μg/mL GSNO Reductase, and 1% DMSO. Final volume: 800 μL/cuvette.

[3] = oral 10 mg/kg/day for 7 days, vs vehicle treated controls, p<0.05
[4] = oral 10 mg/kg/day for 10 consecutive days, prophylactic

Row | SMILES | circulating inflammatory cytokines ([1]; acute DSS model, oral dosing) | effects compared to prednisolone (positive control) ([1]; prednisolone 3 mg/kg/day oral) | BALF chemokines ([2]; acute 4 day smoke model) | effects compared to roflumilast (positive control) ([2]; acute 4 day smoke model) | decrease of eosinophils in BALF [2, 3] [%] | decrease of leukocytes in BALF [2, 3] [%] | decrease of macrophages in BALF [2, 3] [%] | decrease of neutrophils in BALF [2, 3] [%] | decrease of total cells in BALF [2, 3] [%] | IC50 (GSNOR) [nM] | decrease of percent of mice with severe colon injury scores via endoscopy [1, 4] | decrease of percent of mice with severe colon injury scores via histopathology [1, 4]
1 | O=C(O)c1ccc(-c2ccc3cc(O)ccc3n2)cc1 [Example 3, 4-(6-hydroxyquinolin-2-yl)benzoic acid] | restored circulating inflammatory cytokines towards levels observed in untreated naïve mice | comparable to or greater than those observed for prednisolone | restored BALF chemokines towards levels observed in naïve mice | comparable to or greater than those observed for roflumilast | 95 | 80 | 75 | 84 | 66 | – | – | –
2 | O=C(O)c1ccc(-c2ccc3cc(O)ccc3n2)c(Cl)c1 [Example 8, 3-chloro-4-(6-hydroxyquinolin-2-yl)benzoic acid] | – | – | – | – | – | – | – | – | – | < 100 | 44 % of vehicle control | 26 % of vehicle control
